Values quoted from earlier work, collected in publication PMC4483627 (Marine Drugs, 2015).

Target: T1, rat nAChR α3β4 (Rattus norvegicus, UniProt P04757+P12392)
T1 construct: expressed in transfected cells; host or cells: Xenopus oocytes injected with cRNA
Details: cited from earlier work

T1 sequence (P04757 26-499 limits assumed): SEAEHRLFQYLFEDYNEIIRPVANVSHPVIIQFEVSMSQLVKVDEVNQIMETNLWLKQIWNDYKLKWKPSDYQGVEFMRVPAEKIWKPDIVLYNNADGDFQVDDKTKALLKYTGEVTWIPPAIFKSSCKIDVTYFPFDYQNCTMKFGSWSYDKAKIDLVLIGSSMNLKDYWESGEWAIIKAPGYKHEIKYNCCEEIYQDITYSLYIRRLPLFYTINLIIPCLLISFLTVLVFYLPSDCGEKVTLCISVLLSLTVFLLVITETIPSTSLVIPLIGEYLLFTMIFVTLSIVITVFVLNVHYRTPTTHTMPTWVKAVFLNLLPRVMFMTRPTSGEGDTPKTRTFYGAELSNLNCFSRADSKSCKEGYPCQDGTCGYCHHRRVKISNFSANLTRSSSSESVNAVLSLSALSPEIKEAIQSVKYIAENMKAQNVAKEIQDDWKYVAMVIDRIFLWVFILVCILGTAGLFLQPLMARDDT
T1 sequence (P12392 21-495 limits assumed): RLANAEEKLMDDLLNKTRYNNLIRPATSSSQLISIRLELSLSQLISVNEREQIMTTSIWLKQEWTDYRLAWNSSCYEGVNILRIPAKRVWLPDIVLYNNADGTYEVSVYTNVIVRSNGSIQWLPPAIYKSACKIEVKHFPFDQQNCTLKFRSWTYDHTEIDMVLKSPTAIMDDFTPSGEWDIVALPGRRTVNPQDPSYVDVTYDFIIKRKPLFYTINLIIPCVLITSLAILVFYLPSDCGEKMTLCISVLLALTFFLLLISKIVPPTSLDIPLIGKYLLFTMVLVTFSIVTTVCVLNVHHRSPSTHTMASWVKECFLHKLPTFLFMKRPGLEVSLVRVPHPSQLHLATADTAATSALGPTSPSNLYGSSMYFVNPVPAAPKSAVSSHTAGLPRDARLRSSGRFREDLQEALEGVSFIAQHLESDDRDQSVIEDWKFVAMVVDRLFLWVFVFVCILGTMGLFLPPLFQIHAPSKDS

G CC SHP V C SAMS P I- C * (bicyclic or more) [TxID]
IC50: 12.5 nM
